Assays:
HLA-DRα mRNA = HLA-DRα mRNA by standard PCR and real-time PCR in human cell lines JAR and SK-N-MC; assay type: cell-based; conditions: JAR; for fold increase in HLA-DRα (MHC class II) mRNA over the control: real time quantitative RT-PCR, 100 nM TSA, IFNγ 100 U/ml or combination for 12 hours, sodium butyrate (FIG. 2)
Experimental: To determine the effect of DAIs on HLA-DRα mRNA, cytoplasmic RNA was isolated from untreated and treated human trophoblast cell line JAR using standard techniques (RNeasy System from Qiagen). Standard PCR was performed using primers for DR and CIITA (Murphy et al., 1998, Reprod Dev., Chin et al., 1994, Immunity 1:687-697). Other primers used included human and mouse GAPDH (Clontech) and forward primer 5′-[…]-3′ (SEQ ID NO:25) and reverse primer 5′-[…]-3′ (SEQ ID NO:26) for mouse CIITA. PCR products were amplified with GOLD Taq for 10 min at 95° C., then 95° C. for 30 sec, 60° C. for 60 sec (25-45 cycles), then an extension at 60° C. for 10 min.
Oligonucleotide primers and TaqMan 5′-6-FAM and 3′-TAMRA-labeled probes were synthesized in the RPCI Biopolymer Facility. Primer and probe sequences are listed under Sequence Listing and also in FIG. 9. Sequences were designed using standard software (PrimerExpress software, PE Biosystems) except for human GAPDH.
Realtime PCR reactions contained TaqMan Universal PCR Master Mix (PE Biosystems), primers at 300 nM, and probes at optimal concentrations (150-225 nM depending on gene). Reactions were carried out on an ABI PRISM 7700 Sequence Detection System (PE Biosystems). Cycling conditions were 50° C. for 2 min, 95° C. for 10 min, then 60 cycles of 95° C. for 15 sec, 60° C. for 1 min. PCR samples were run in triplicate. The detection system and quantitative PCR was carried out as described by Williamson et al. (1995, Genet Res. 65:83-93). The threshold cycle number CT corresponded to the cycle number, at which the fluorescent emission reaches 10 standard deviations above the mean fluorescent emission, measured during the early ‘baseline’ cycles of the PCR. The CT values for triplicates were averaged and normalized to GAPDH levels. […] Assuming reverse transcription efficiencies were approximately the same for each sample, relative amounts of mRNA using the comparative CT method. Fold changes in mRNA levels were calculated as 2^x where x=the difference between normalized CT values of the control and experimental samples.
To evaluate the effects of DAIs on human cells, the human trophoblast cell line was treated with 100 nM Trichostatin A (TSA), IFNγ (100 U/ml) or a combination of TSA and IFNγ for 12 hours. RNA was isolated and real time quantitative RT-PCR was carried out. The fold increase in mRNA over the control was calculated.

J558 cells = test: Other cell surface markers by flow cytometry on J558 cells; assay type: cell-based, mouse; conditions: TSA treatment
Experimental: (§1) To determine the effect of TSA on cell surface protein expression, the J558 cell line was subjected to flow cytometric analyses as follows. Flow cytometric analyses were conducted by standard methods using cells fixed with 1.0% paraformaldehyde and analyzed on the FACScan (Becton Dickinson). Cell cycle analyses were carried out by flow cytometry with PI staining of genomic DNA. Cells were fixed and permeablized in methanol, treated with RNaseA and analyzed for DNA content by determination of FL3-area on the FACScan. The FL3-area data were analyzed with the ModFit software for determination of the percent cells in each phase of the cell cycle. In some cases, fluorescein isothiocyanate (FITC)-conjugated antibody staining was conducted prior to PI treatment and surface staining was analyzed as a function of cell cycle phase. Apoptosis was analyzed by staining with annexin-V directly conjugated with either FITC or RPE and by sub-G0 analysis of DNA staining. […] Isotype controls were analyzed and, in each case, fell on or below the levels shown for control cells. […] Since all cells were positive for MHC class I expression, the number under the histogram represents -fold change of expression calculated from the mean channel-shift after treatment relative to untreated cells. […]

[1] = test system: MHC class II protein on the cell surface; test: Cell surface MHC class II protein by flow cytometry on Colon 26 and J558; assay type: cell-based, mouse; conditions: for expression of MHC class II protein on the cell surface: Colon 26 (50 nM TSA 48 hours) and J558 (25 nM TSA 24 hours), flow cytometry, IFNγ 100 U/ml same time
Experimental: To determine the effect of TSA on cell surface protein expression, the J558 cell line was subjected to flow cytometric analyses as follows. Flow cytometric analyses were conducted by standard methods using cells fixed with 1.0% paraformaldehyde and analyzed on the FACScan (Becton Dickinson). Cell cycle analyses were carried out by flow cytometry with PI staining of genomic DNA. Cells were fixed and permeablized in methanol, treated with RNaseA and analyzed for DNA content by determination of FL3-area on the FACScan. The FL3-area data were analyzed with the ModFit software for determination of the percent cells in each phase of the cell cycle. In some cases, fluorescein isothiocyanate (FITC)-conjugated antibody staining was conducted prior to PI treatment and surface staining was analyzed as a function of cell cycle phase. Apoptosis was analyzed by staining with annexin-V directly conjugated with either FITC or RPE and by sub-G0 analysis of DNA staining. Expression levels without treatment are shown as shaded peaks, IFNγ treated cell expression is plotted by a thin line while the level of expression on TSA treated cells is represented by a heavy line. Isotype controls were analyzed and, in each case, fell on or below the levels shown for control cells. MC and Colon 26 treatments are shown for 50 nM TSA for 48 hours, while J558 treatment is for 25 nM TSA for 24 hours. All IFNγ treatments were 100 U/ml for the same length of time as the corresponding TSA treatment. The percent of cells staining positive for MHC class II or CD40 expression is indicated below each histogram. Since all cells were positive for MHC class I expression, the number under the histogram represents -fold change of expression calculated from the mean channel-shift after treatment relative to untreated cells. Data are representative of at least three independent experiments. Of the 13 markers analyzed on J558 cells, only class I, II and CD40 were enhanced, while levels of several non-expressed antigens were not elicited (including CD25, B7 integrin, CD40L, H2K^k and IA^k) while other markers, which were expressed, were not altered (including CD44, CD54, CD80, CD86 and CD119) by TSA treatment. […] The highest expression (21-fold induction) was achieved on J558 cells after 24 hr by 25 nM TSA. […] The separation of control and IFNγ curves in the CD40, J558 experiment depicted in FIG. 8 represents a mean channel fluorescence difference of only 1.3 and was not seen on independent replicates of the experiment.
TSA has been described as a cell cycle inhibitor that induces both G1 and especially G2/M blocks (Bestor, 1998, Nature, 393:311-312; Yoshida et al., 1988, Exp. Cell Res. 177:122-131). MHC class II, but not class I, has been reported (Inokoshi et al., 1999, Biochem. Biophys. Res. Commun., 256:372-376; Monroe et al., 1983, J. Immunol., 130:626-631) to be regulated differentially during the cell cycle. Therefore the cell cycle of the cell lines used in the present invention was analyzed by DNA staining and flow cytometry with each of the treatment conditions under study. […] Two additional methods were used to analyze cell cycle effects on MHC expression. Since it has been reported that TSA arrests cell cycle mainly in G2/M, and class II has been reported to accumulate in G2/M (Monroe et al., 1983, supra), experiments were designed to essentially arrest 100% of J558 cells in G2/M with nocodazole. […] From the above experiments, it can be concluded that DAIs have specific effects on MHC class I and II, and CD40 gene expression, which is likely not a result of its action on the cell cycle.

[2] = test system: MC, Colon 26 and J558 cells; test: Cell cycle analysis by DNA staining and flow cytometry; assay type: cell-based; conditions: TSA concentrations used in FIG. 8 (50 nM 48 hours MC and Colon 26; 25 nM 24 hours J558); data not shown
Experimental: as §1

Row | Molecule | fold increase in HLA-DRα (MHC class II) mRNA over the control (HLA-DRα mRNA) | levels of mRNA for DR (HLA-DRα mRNA; standard PCR, 100 nM or 250 nM TSA or 1 mM sodium butyrate) | expressed markers (CD44, CD54, CD80, CD86, CD119) (J558 cells) | levels of non-expressed antigens (CD25, B7 integrin, CD40L, H2K^k, IA^k) (J558 cells) | expression of MHC class II protein on the cell surface [1] | cells positive for class II expression ([1]; Colon 26, TSA concentration used in FIG. 8 (50 nM for 48 hours)) | MHC class II positive cells ([1]; J558, G2/M arrest experiment with nocodazole, data not shown) | cells positive for class II expression ([1]; J558, TSA concentration used in FIG. 8 (25 nM for 24 hours)) | induction of cell surface MHC class II, mean channel fluorescence ([1]; J558 cells, 24 hr, 25 nM TSA, highest expression) | effect on the cell cycle [2]
1 | CC(/C=C/C(=O)NO)=C\[C@@H](C)C(=O)c1ccc(N(C)C)cc1 [TSA, Trichostatin A] | 15 fold | substantial increase | not altered | not elicited | significantly induced | 53% | 75% | 87% | 21 fold | did not significantly alter
2 | IFNγ: gamma-interferon, cytokine used as comparator at 100 U/ml | did not induce |  |  |  | did not induce |  |  |  |  | 

— US6518012B1, “Method for regulating the expression of MHC antigens and CD40 by inhibitors of histone deacetylation” (Health Research, Inc., priority 1999, dated 2003)
